# Test results as given in EP1992347A1 (CELLZOME AG, priority 2007, dated 2008).
# Legend:
# [1] = molecular target: T1, receptor tyrosine kinase DDR1 (Homo sapiens, UniProt Q08345); experiment: kinobeads competition binding assay in K562 cell lysate (iTRAQ mass spectrometry, Western blot); settings: at 1 µM
# T1 construct: endogenous in cells; host or cells: K562 cells / K562 cell lysate
# Description: From this dataset, dose-response binding profiles were computed.
# All experiments were performed in duplicate.
# FAK = FAK (Homo sapiens, UniProt Q05397); settings: phage display studies, Fabian et al., 2005; cited from earlier work
# FAK, sequence (Q05397 whole entry, species assumed): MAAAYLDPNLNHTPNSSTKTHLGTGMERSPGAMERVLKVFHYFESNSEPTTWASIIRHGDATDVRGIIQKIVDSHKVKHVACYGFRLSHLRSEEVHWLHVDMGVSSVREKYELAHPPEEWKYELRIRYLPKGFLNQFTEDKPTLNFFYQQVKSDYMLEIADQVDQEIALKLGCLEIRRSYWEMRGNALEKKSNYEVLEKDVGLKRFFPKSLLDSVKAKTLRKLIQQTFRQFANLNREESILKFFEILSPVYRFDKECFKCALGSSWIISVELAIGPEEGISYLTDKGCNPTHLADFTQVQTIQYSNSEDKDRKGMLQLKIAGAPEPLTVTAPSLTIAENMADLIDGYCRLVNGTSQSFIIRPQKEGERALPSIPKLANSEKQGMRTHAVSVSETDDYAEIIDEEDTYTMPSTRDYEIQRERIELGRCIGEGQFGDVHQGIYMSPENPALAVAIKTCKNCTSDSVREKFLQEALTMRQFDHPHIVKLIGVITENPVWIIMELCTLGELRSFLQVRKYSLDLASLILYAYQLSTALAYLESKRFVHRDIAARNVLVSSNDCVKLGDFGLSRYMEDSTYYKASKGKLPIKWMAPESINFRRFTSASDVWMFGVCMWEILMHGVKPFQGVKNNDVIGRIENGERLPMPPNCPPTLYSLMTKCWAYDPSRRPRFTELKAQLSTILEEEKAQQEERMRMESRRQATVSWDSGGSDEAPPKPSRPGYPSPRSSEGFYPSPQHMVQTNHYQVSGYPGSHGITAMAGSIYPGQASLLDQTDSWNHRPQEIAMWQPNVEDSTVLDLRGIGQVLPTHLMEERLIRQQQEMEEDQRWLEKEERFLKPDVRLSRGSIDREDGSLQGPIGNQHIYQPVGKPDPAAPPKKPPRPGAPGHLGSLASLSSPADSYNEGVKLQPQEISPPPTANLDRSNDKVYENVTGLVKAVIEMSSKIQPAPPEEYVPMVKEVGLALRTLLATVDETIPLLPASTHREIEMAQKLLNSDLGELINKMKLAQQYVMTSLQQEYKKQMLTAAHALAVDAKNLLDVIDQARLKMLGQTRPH
# T1 sequence (Q08345 19-913): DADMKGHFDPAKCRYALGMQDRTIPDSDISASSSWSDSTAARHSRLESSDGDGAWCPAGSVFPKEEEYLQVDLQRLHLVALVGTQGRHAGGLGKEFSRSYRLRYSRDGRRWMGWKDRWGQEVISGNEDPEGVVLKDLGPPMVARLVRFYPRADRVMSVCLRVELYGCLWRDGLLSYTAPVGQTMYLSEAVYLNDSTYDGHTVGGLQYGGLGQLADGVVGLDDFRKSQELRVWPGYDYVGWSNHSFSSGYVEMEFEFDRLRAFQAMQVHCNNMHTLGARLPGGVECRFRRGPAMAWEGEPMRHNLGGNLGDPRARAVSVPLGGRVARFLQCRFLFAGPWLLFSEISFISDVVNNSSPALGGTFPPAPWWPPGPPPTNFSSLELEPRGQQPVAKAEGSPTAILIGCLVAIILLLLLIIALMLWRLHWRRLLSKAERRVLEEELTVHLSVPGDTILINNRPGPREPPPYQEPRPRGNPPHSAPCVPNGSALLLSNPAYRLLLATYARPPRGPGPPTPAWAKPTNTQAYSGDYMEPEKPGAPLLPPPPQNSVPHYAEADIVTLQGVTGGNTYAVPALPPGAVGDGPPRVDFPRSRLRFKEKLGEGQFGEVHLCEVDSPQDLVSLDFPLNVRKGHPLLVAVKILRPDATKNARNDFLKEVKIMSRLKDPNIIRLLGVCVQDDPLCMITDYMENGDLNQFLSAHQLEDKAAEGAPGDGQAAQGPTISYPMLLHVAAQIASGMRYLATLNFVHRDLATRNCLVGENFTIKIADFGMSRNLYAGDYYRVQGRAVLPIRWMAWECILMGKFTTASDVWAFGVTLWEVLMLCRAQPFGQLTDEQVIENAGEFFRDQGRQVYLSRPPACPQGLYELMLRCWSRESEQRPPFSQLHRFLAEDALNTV
competition [1] [%],SMILES,binding to FAK (FAK)
> 50,COc1cc(Nc2c(C#N)cnc3cc(OCCCN4CCN(C)CC4)c(OC)cc23)c(Cl)cc1Cl [bosutinib],
,"Cc1ccc(NC(=O)c2ccc(CN3CCN(C)CC3)cc2)cc1Nc1nccc(-c2cccnc2)n1 [imatinib, 4-(4-methylpiperazin-1-ylmethyl)-N-[4-methyl-3-(4-pyridin-3-yl)pyrimidin-2-ylamino)phenylbenzamide]",no binding
